{
  "source": "patent US20190374515A1",
  "about": "“THERAPEUTIC DRUG OR PROPHYLACTIC DRUG FOR DIABETIC NEPHROPATHY” (TEIJIN PHARMA LIMITED, priority 2016, published 2019)",
  "key": {"ZDF rats [1]": {"tested_on": "ZDF rats", "experiment": "Urinary KIM-1 excretion (renal tubular damage marker) in ZDF rats (Example 2)", "conditions": "12th week; for Urinary KIM-1 excretion: mean ± SE", "procedure": "(§2) Podocalyxyn was used as a marker for glomerular damage and Kidney Injury Marker-1 (KIM-1) was used as a marker for renal tubular damage, with a Podocalyxin rELISA Kit (EXOCELL) and a Rat TIM-1/KIM-1/HAVCR Qauntikine ELISA Kit (R&D Systems), respectively.\n(§3) As a control group, ZDF rats were orally administered a solvent (0.5% methyl cellulose) once per day for 12 weeks (Vehicle group). Urine was collected for 24 hours at the 12th week of administration, and the urinary albumin concentration, urine Podocalyxyn concentration, urine KIM-1 concentration and urinary volume were measured."}, "ZDF rats [2]": {"tested_on": "ZDF rats", "experiment": "Urinary Podocalyxyn excretion (glomerular damage marker) in ZDF rats (Example 2)", "conditions": "12th week; for Urinary Podocalyxyn excretion: mean ± SE", "procedure": "as §2, §3"}, "ZDF rats [3]": {"tested_on": "ZDF rats", "experiment": "Urinary albumin excretion in ZDF rats, 12-week oral dosing (Example 2)", "conditions": "12th week; for Urinary albumin excretion: mean ± SE", "procedure": "as §2, §3"}, "[4]": {"experiment": "Plasma uric acid concentration in ZDF rats by LC-MS/MS (Example 1)", "assay_type": "in vivo, rat", "description": "(§1) The plasma uric acid level was measured by LC-MS/MS. Compared to the Control group which had normal blood glucose levels, the urinary albumin excretion in the Vehicle group which consisted of ZDF rats that had type II diabetes and had been administered the solvent were increased in time-dependent manner."}, "[5]": {"tested_on": "Zucker Diabetic Fatty (ZDF) rats", "experiment": "Urinary albumin excretion in ZDF rats, 13-week oral dosing (Example 1)", "assay_type": "in vivo, rat", "conditions": "for Cumulative urinary albumin excretion (AUC0-12 wks): initial administration until 12th week", "description": "as §1"}},
  "data": [
    {"molecule": "Cc1nc(-c2ccc(OCC(C)C)c(-n3cnnn3)c2)sc1C(=O)O", "note": "[Compound 1, 4-Methyl-2-[4-(2-methylpropoxy)-3-(1H-1,2,3,4-tetrazol-1-yl)phenyl]-1,3-thiazole-5-carboxylic acid]", "values": [
      {"measurement": "Urinary KIM-1 excretion", "setting": "ZDF rats [1]; 0.1 mg/kg oral once per day", "value": "64.3 ± 22.1", "unit": "ng/day"},
      {"measurement": "Urinary KIM-1 excretion", "setting": "ZDF rats [1]; 0.3 mg/kg oral once per day", "value": "22.3 ± 2.9", "unit": "ng/day"},
      {"measurement": "Urinary KIM-1 excretion", "setting": "ZDF rats [1]; 1 mg/kg oral once per day", "value": "18.1 ± 2.0", "unit": "ng/day"},
      {"measurement": "KIM-1, marker for renal tubular damage (in words)", "setting": "ZDF rats [1]", "value": "reduced"},
      {"measurement": "Urinary Podocalyxyn excretion", "setting": "ZDF rats [2]; 0.1 mg/kg oral once per day", "value": "32.5 ± 3.3", "unit": "µg/day"},
      {"measurement": "Urinary Podocalyxyn excretion", "setting": "ZDF rats [2]; 0.3 mg/kg oral once per day", "value": "22.3 ± 2.9", "unit": "µg/day"},
      {"measurement": "Urinary Podocalyxyn excretion", "setting": "ZDF rats [2]; 1 mg/kg oral once per day", "value": "20.6 ± 4.4", "unit": "µg/day"},
      {"measurement": "Podocalyxyn, marker for glomerular damage (in words)", "setting": "ZDF rats [2]", "value": "reduced"},
      {"measurement": "Urinary albumin excretion", "setting": "ZDF rats [3]; 0.1 mg/kg oral once per day", "value": "96.50 ± 9.61", "unit": "µg/day"},
      {"measurement": "Urinary albumin excretion compared to the Vehicle group (in words)", "setting": "ZDF rats [3]; 0.3 mg/kg and 1 mg/kg doses", "value": "significantly reduced"},
      {"measurement": "Urinary albumin excretion", "setting": "ZDF rats [3]; 0.3 mg/kg oral once per day", "value": "70.18 ± 60.94", "unit": "µg/day"},
      {"measurement": "Plasma uric acid concentration compared to the Vehicle group (in words)", "setting": "[4]; 1 mg/kg and 3 mg/kg doses", "value": "significantly decreased"},
      {"measurement": "Plasma uric acid concentration", "setting": "[4]; 3 mg/kg oral once per day, 24 hours after administration at 13th week, mean ± SE", "value": "0.18 ± 0.01", "unit": "mg/dL"},
      {"measurement": "Cumulative urinary albumin excretion (AUC0-12 wks)", "setting": "[5]; 1 mg/kg oral once per day, mean ± SE", "value": "294.8 ± 38.1"},
      {"measurement": "Urinary albumin excretion", "setting": "[5]; 1 mg/kg oral once per day, week 0 (before administration), mean ± SE", "value": "3.37 ± 0.83", "unit": "µg/day"},
      {"measurement": "Urinary albumin excretion", "setting": "[5]; 1 mg/kg oral once per day, week 2, mean ± SE", "value": "4.78 ± 0.87", "unit": "µg/day"},
      {"measurement": "Urinary albumin excretion", "setting": "[5]; 1 mg/kg oral once per day, week 4, mean ± SE", "value": "8.90 ± 1.63", "unit": "µg/day"},
      {"measurement": "Urinary albumin excretion", "setting": "[5]; 1 mg/kg oral once per day, week 6, mean ± SE", "value": "21.96 ± 3.79", "unit": "µg/day"},
      {"measurement": "Urinary albumin excretion", "setting": "[5]; 1 mg/kg oral once per day, week 8, mean ± SE", "value": "38.74 ± 5.64", "unit": "µg/day"},
      {"measurement": "Urinary albumin excretion", "setting": "[5]; 1 mg/kg oral once per day, week 10, mean ± SE", "value": "41.33 ± 5.47", "unit": "µg/day"},
      {"measurement": "Urinary albumin excretion", "setting": "[5]; 1 mg/kg oral once per day, week 12, mean ± SE", "value": "60.00 ± 8.58", "unit": "µg/day"},
      {"measurement": "Cumulative urinary albumin excretion (AUC0-12 wks)", "setting": "[5]; 3 mg/kg oral once per day, mean ± SE", "value": "279.4 ± 27.1"},
      {"measurement": "Urinary albumin excretion", "setting": "[5]; 3 mg/kg oral once per day, week 0 (before administration), mean ± SE", "value": "3.91 ± 1.06", "unit": "µg/day"},
      {"measurement": "Urinary albumin excretion", "setting": "[5]; 3 mg/kg oral once per day, week 2, mean ± SE", "value": "7.64 ± 1.66", "unit": "µg/day"},
      {"measurement": "Urinary albumin excretion", "setting": "[5]; 3 mg/kg oral once per day, week 4, mean ± SE", "value": "14.43 ± 2.90", "unit": "µg/day"},
      {"measurement": "Urinary albumin excretion", "setting": "[5]; 3 mg/kg oral once per day, week 6, mean ± SE", "value": "21.97 ± 1.75", "unit": "µg/day"},
      {"measurement": "Urinary albumin excretion", "setting": "[5]; 3 mg/kg oral once per day, week 8, mean ± SE", "value": "23.38 ± 3.09", "unit": "µg/day"},
      {"measurement": "Urinary albumin excretion", "setting": "[5]; 3 mg/kg oral once per day, week 10, mean ± SE", "value": "37.37 ± 4.11", "unit": "µg/day"},
      {"measurement": "Urinary albumin excretion", "setting": "[5]; 3 mg/kg oral once per day, week 12, mean ± SE", "value": "65.88 ± 8.33", "unit": "µg/day"},
      {"measurement": "Urinary albumin excretion compared to the Vehicle group (in words)", "setting": "[5]; at both the 1 mg/kg and 3 mg/kg doses", "value": "significantly reduced"}
    ]}
  ]
}
